# Assay results taken from patent US11596145B2, “Anti-freezing agent for protecting biological tissue during freezing treatment and preparation method therefor” (TAIPEI VETERANS GENERAL HOSPITAL, priority 2016, dated 2023).
# Legend:
# human cartilage tissue [1] = experiment: Protection of human cartilage tissue during liquid nitrogen freezing (HE stain, separation of cartilage from hard bone); settings: applied to articular cartilage, liquid nitrogen 20 minutes, warmed to room temperature 20 minutes
# Excerpt: Unneeded normal cartilage tissues (residual specimens) taken from the human body during surgery were divided into three groups and treated separately: control group A was not treated; for control group B, traditional commercially available anti-freezing agent was applied to articular cartilage; and for experimental group C, the anti-freezing agent of the present invention was applied to the articular cartilage. The control and experimental groups were separately placed in liquid nitrogen to freeze for 20 minutes, slowly warmed to room temperature for 20 minutes, fixed with 4% paraformaldehyde, pathologically sectioned, and then stained by hematoxylin-eosin. […] The size of separation was 2.16 mm in the control group A, 1.2 mm in the control group B, and 0.45 mm in the experimental group. It was shown that the anti-freezing agent of the present invention can protect cartilage tissue and reduce the separation of cartilage and hard bone caused by freezing.
# rat knee cartilage = experiment: Protective effect on rat knee cartilage during liquid nitrogen freezing (HE stain of pathological sections); settings: coated at articular cartilage; liquid nitrogen 20 minutes, warmed to room temperature 20 minutes
# Description: The rat knee cartilage was taken out. The control group A was not treated, and the control group B was coated with a conventional commercially available anti-freezing agent (dimethyl sulfoxide) at the articular cartilage. The experimental groups were coated with the anti-freezing agent of the present invention at the articular cartilage, separately placed in liquid nitrogen for 20 minutes, slowly warmed to room temperature for 20 minutes, fixed with 4% paraformaldehyde, pathologically sectioned, and then stained with hematoxylin-eosin (HE stain). The pathological sections of hematoxylin-eosin stained control group (A), control group (B), and experimental group (C). are shown in FIG. 2. After freezing, in the control group A the cartilage surface became brittle and uneven (as indicated by the arrow), and the control group B was also uneven (as indicated by the arrow).
# human cartilage tissue [2] = experiment: Change of cartilage color index (luminance level of cartilage surface) after freezing; settings: applied to articular cartilage; liquid nitrogen 20 minutes, warmed to room temperature 20 minutes
# Excerpt: Unneeded normal cartilage tissues (residual specimens) taken from the human body during surgery were divided into three groups and treated separately: control group A was not treated; for control group B, traditional commercially available anti-freezing agent was applied to articular cartilage; and for experimental group C, the anti-freezing agent of the present invention was applied to the articular cartilage. The control and experimental groups were separately placed in liquid nitrogen to freeze for 20 minutes, and then slowly warmed to room temperature for 20 minutes. The color index change of the cartilage surface was observed by analyzing the decrease of luminance level of the cartilage surface.
compound,measurement,setting,value
C[S+](C)[O-] [dimethyl sulfoxide],separation at the intersection of the cartilage bottom and the hard bone after freezing,human cartilage tissue [1]; HE stain,separation (the stellate) also occurred
same,size of separation,human cartilage tissue [1]; untreated control 2.16 mm,1.2 mm
same,cartilage surface after freezing (hematoxylin-eosin stained section),rat knee cartilage,uneven
same,decrease of luminance level of the cartilage surface after freezing,human cartilage tissue [2],significantly decreased
